Test results published in PMC6225228, “Design, Synthesis and Evaluation of N-pyrazinylbenzamides as Potential Antimycobacterial Agents” (Molecules : A Journal of Synthetic Chemistry and Natural …, 2018).
Values after ≈ are worked out from the molar mass of the structure shown. Like-named read-outs stand apart in the source and are kept apart here.

What was measured:
[1] = test system: Mycobacterium tuberculosis H37Rv CNCTC My 331/88 (ATCC 27294); experiment: Antimycobacterial microdilution MABA, M. tuberculosis; type: cell-based; settings: for MIC: Mycobacterium tuberculosis, read-out: Mtb H37Rv ATCC 27294 MIC, Middlebrook 7H9 with OADC growth supplement, pH = 6.6, MABA
[2] = test system: M. kansasii CNCTC My 235/80 (ATCC 12478); experiment: Antimycobacterial microdilution MABA, M. kansasii; type: cell-based, Mycobacterium kansasii; settings: for MIC: Mycobacterium kansasii, ATCC12478, pH 6.6, read-out: M. kans. ATCC 12478 MIC, Middlebrook 7H9 with OADC, pH 6.6, MABA
[3] = test system: M. avium ssp. avium CNCTC My 80/72 (ATCC 15769); experiment: Antimycobacterial microdilution MABA, M. avium; type: cell-based, Mycobacterium avium; settings: for M. avium ATCC 15769 MIC: Middlebrook 7H9 with OADC, pH 6.6, MABA; for MIC: Mycobacterium avium, ATCC15769, pH 6.6, read-out: M. avium ATCC 15769 MIC
[4] = test system: Mycobacterium smegmatis CCM 4622 (ATCC 607); experiment: Antimycobacterial microdilution, M. smegmatis; type: cell-based; settings: Mycolicibacterium smegmatis, read-out: M. smeg. ATCC 607 MIC
[5] = test system: Staphylococcus aureus CCM 4516/08; experiment: Antibacterial microdilution broth, SA; type: cell-based; settings: Staphylococcus aureus
[6] = test system: Staphylococcus aureus H 5996/08 methicillin resistant; experiment: microbe, parasite or virus in culture; type: cell-based; settings: Staphylococcus aureus, MRSA, read-out: MIC MRSA
[7] = test system: Staphylococcus epidermidis H 6966/08; experiment: Antibacterial microdilution broth, SE; type: cell-based; settings: Staphylococcus epidermidis, read-out: MIC SE
[8] = test system: Enterococcus sp. J 14365/08; experiment: Antibacterial microdilution broth, EF; type: cell-based; settings: Enterococcus, read-out: MIC EF
[9] = test system: Escherichia coli CCM 4517; experiment: Antibacterial microdilution broth, EC; type: cell-based; settings: Escherichia coli, read-out: MIC EC
[10] = test system: Pseudomonas aeruginosa CCM 1961; experiment: Antibacterial microdilution broth, PA; type: cell-based; settings: Pseudomonas aeruginosa, read-out: MIC PA
[11] = test system: Candida albicans ATCC 44859; experiment: Antifungal microdilution broth, CA; type: cell-based; settings: Candida albicans, read-out: MIC CA
Candida tropicalis 156 = experiment: Antifungal microdilution broth, CT; type: cell-based; settings: read-out: MIC CT
Candida krusei E28 = experiment: Antifungal microdilution broth, CK; type: cell-based; settings: Pichia kudriavzevii, read-out: MIC CK
Candida glabrata 20/I = experiment: Antifungal microdilution broth, CG; type: cell-based; settings: Nakaseomyces glabratus, 20/I, read-out: MIC CG
Trichosporon asahii 1188 = experiment: Antifungal microdilution broth, TA; type: cell-based; settings: read-out: MIC TA
[12] = test system: Aspergillus fumigatus 231; experiment: Antifungal microdilution broth, AF; type: cell-based; settings: read-out: MIC AF
[13] = test system: Lichtheimia corymbifera 272; experiment: Antifungal microdilution broth, LC; type: cell-based; settings: read-out: MIC LC
[14] = test system: Trichophyton interdigitale 445; experiment: Antifungal microdilution broth, TI; type: cell-based; settings: read-out: MIC TI
[15] = CCM4516, 24 h, read-out: MIC SA, 24 h
[16] = CCM4516, 48 h, read-out: MIC SA, 48 h
[17] = Trichosporon asahii, 1188, 24 h
[18] = Trichosporon asahii, 1188, 48 h
[19] = Aspergillus fumigatus, 231, 24 h
[20] = Aspergillus fumigatus, 231, 48 h
[21] = Lichtheimia corymbifera, 272, 24 h
[22] = Lichtheimia corymbifera, 272, 48 h
[23] = Trichophyton interdigitale, 445, 72 h
[24] = Trichophyton interdigitale, 445, 120 h

Row | SMILES | MIC [1] | MIC [2] | MIC [3] | MIC [4] | MIC [5, 15] | MIC [5, 16] | MIC ([6]; 24 h) | MIC ([6]; 48 h) | MIC ([7]; H6966/08, 24 h) | MIC ([7]; H6966/08, 48 h) | MIC ([8]; SP.J14365/08, 24 h) | MIC ([8]; SP.J14365/08, 48 h) | MIC ([9]; CCM4517, 24 h) | MIC ([9]; CCM4517, 48 h) | MIC ([10]; CCM1961, 72 h) | MIC ([10]; CCM1961, 120 h) | MIC ([11]; ATCC44859, 24 h) | MIC ([11]; ATCC44859, 48 h) | MIC (Candida tropicalis 156; Candida tropicalis, 156, 24 h) | MIC (Candida tropicalis 156; Candida tropicalis, 156, 48 h) | further results
1 | O=C(Nc1cnccn1)c1cccc(Cl)c1 [Compound 1k] | 50 µg/mL (≈ 214 µM) | 50 µg/mL (≈ 214 µM) | > 100 µg/mL | ≥ 500 µg/mL | > 125 µM | > 125 µM | > 125 µM | > 125 µM | > 125 µM | > 125 µM | > 125 µM | > 125 µM | > 125 µM | > 125 µM | > 125 µM | > 125 µM | > 125 µM | > 125 µM | > 125 µM | > 125 µM | M. avium ATCC 15769 MIC [3]: >100 µg/mL; MIC (Candida krusei E28; E28, 24 h): > 125 µM; MIC (Candida krusei E28; E28, 48 h): > 125 µM; MIC (Candida glabrata 20/I; 24 h): > 125 µM; MIC (Candida glabrata 20/I; 48 h): > 125 µM; MIC (Trichosporon asahii 1188; [17]): > 125 µM; MIC (Trichosporon asahii 1188; [18]): > 125 µM; MIC [12, 19]: > 125 µM; MIC [12, 20]: > 125 µM; MIC [13, 21]: > 125 µM; MIC [13, 22]: > 125 µM; MIC [14, 23]: > 125 µM; MIC [14, 24]: > 125 µM; melting point: 147.2 to 149.4 °C
2 | O=C(c1ccc(Cl)cc1)N(C(=O)c1ccc(Cl)cc1)c1cnccn1 [Compound 1l-SP] | 50 µg/mL (≈ 134 µM) | > 100 µg/mL | > 100 µg/mL | ≥ 500 µg/mL | > 125 µM | > 125 µM | > 125 µM | > 125 µM | > 125 µM | > 125 µM | > 125 µM | > 125 µM | > 125 µM | > 125 µM | > 125 µM | > 125 µM | > 125 µM | > 125 µM | > 125 µM | > 125 µM | M. kans. ATCC 12478 MIC ([2]; Middlebrook 7H9 with OADC, pH 6.6, MABA): >100 µg/mL; M. avium ATCC 15769 MIC [3]: >100 µg/mL; MIC (Candida krusei E28; E28, 24 h): > 125 µM; MIC (Candida krusei E28; E28, 48 h): > 125 µM; MIC (Candida glabrata 20/I; 24 h): > 125 µM; MIC (Candida glabrata 20/I; 48 h): > 125 µM; MIC (Trichosporon asahii 1188; [17]): > 125 µM; MIC (Trichosporon asahii 1188; [18]): > 125 µM; MIC [12, 19]: > 125 µM; MIC [12, 20]: > 125 µM; MIC [13, 21]: > 125 µM; MIC [13, 22]: > 125 µM; MIC [14, 23]: > 125 µM; MIC [14, 24]: > 125 µM; melting point: 153.1 to 153.8 °C
3 | O=C(Nc1cnccn1)c1ccc(Cl)cc1 [Compound 1l] | 50 µg/mL (≈ 214 µM) | 50 µg/mL (≈ 214 µM) | > 100 µg/mL | ≥ 500 µg/mL | > 125 µM | > 125 µM | > 125 µM | > 125 µM | > 125 µM | > 125 µM | > 125 µM | > 125 µM | > 125 µM | > 125 µM | > 125 µM | > 125 µM | > 125 µM | > 125 µM | > 125 µM | > 125 µM | M. avium ATCC 15769 MIC [3]: >100 µg/mL; MIC (Candida krusei E28; E28, 24 h): > 125 µM; MIC (Candida krusei E28; E28, 48 h): > 125 µM; MIC (Candida glabrata 20/I; 24 h): > 125 µM; MIC (Candida glabrata 20/I; 48 h): > 125 µM; MIC (Trichosporon asahii 1188; [17]): > 125 µM; MIC (Trichosporon asahii 1188; [18]): > 125 µM; MIC [12, 19]: > 125 µM; MIC [12, 20]: > 125 µM; MIC [13, 21]: > 125 µM; MIC [13, 22]: > 125 µM; MIC [14, 23]: > 125 µM; MIC [14, 24]: > 125 µM; melting point: 182.6 to 184.3 °C
4 | O=C(Nc1cnc(Cl)cn1)c1ccccc1 [Compound 2a] | > 100 µg/mL | > 100 µg/mL | > 100 µg/mL | ≥ 500 µg/mL | 250 µM (≈ 58.4 µg/mL) | 250 µM (≈ 58.4 µg/mL) | 250 µM (≈ 58.4 µg/mL) | 250 µM (≈ 58.4 µg/mL) | 500 µM (≈ 117 µg/mL) | 500 µM (≈ 117 µg/mL) | > 500 µM | > 500 µM | > 500 µM | > 500 µM | > 500 µM | > 500 µM | > 500 µM | > 500 µM | > 500 µM | > 500 µM | Mtb H37Rv ATCC 27294 MIC ([1]; Middlebrook 7H9 with OADC growth supplement, pH = 6.6, MABA): >100 µg/mL; MIC (Candida krusei E28; E28, 24 h): > 500 µM; MIC (Candida krusei E28; E28, 48 h): > 500 µM; MIC (Candida glabrata 20/I; 24 h): > 500 µM; MIC (Candida glabrata 20/I; 48 h): > 500 µM; MIC (Trichosporon asahii 1188; [17]): > 500 µM; MIC (Trichosporon asahii 1188; [18]): > 500 µM; MIC [12, 19]: > 500 µM; MIC [12, 20]: > 500 µM; MIC [13, 21]: > 500 µM; MIC [13, 22]: > 500 µM; MIC [14, 23]: > 500 µM; MIC [14, 24]: > 500 µM; melting point: 162.5 to 163.5 °C
